Source: EP4603105A1, “PHARMACEUTICAL COMPOSITION CONTAINING CYCLIC COMPOUND HAVING SELECTIVE KRAS INHIBITORY EFFECT AGAINST HRAS AND NRAS” (CHUGAI SEIYAKU KABUSHIKI KAISHA, priority 2022, dated 2024)
pIC50, pKd: −log10 of the molar value. Read-outs that look alike come from different tables or passages of the source.

Experiments:
[1] = target: GDP-bound KRAS wild-type protein (Homo sapiens, UniProt P01116); assay: Binding to KRAS by surface plasmon resonance (SPR), dissociation constant KD
Procedure, shortened: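 GDP-bound biotin-Avi RAS captured at ~100–300 RU, 30°C, pH 7.4 HBS containing 10 µM GDP, 10 mM MgCl2, 1 mM DTT, 0.01% Tween 20 and 4% DMSO. KD by 1:1 fitting.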

[2] = tested on: human lung cancer strain NCI-H441; assay: NCI-H441 cell proliferation inhibitory activity (CellTiter-Glo, 4 days); format: cell-based; conditions: read-out: NCl-H441 IC50
Procedure, shortened: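 Step one: dispense the test compound in serial DMSO dilutions. Step three: add the reagent and measure […].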

HRAS wild-type protein = HRAS wild-type protein (Homo sapiens, UniProt P01112); assay: Binding to HRAS by surface plasmon resonance (SPR), KD and KD ratio to KRAS
Procedure, shortened: (§1)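 Running buffer contained 10 µM GDP and 10 mM MgCl2 to keep RAS in the GDP state, with 4% DMSO at pH 7.4. Compounds were flowed at 100 µL/min in 75 s steps of rising concentration over captured biotin-Avi RAS at 30°C. Sensorgrams were fitted 1:1 for KD.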

[3] = target: GDP-bound NRAS wild-type protein (Homo sapiens, UniProt P01111); assay: Binding to NRAS by surface plasmon resonance (SPR), KD and KD ratio to KRAS
Procedure, shortened: as §1

[4] = ratio of KD for HRAS wild-type protein to KD for KRAS
[5] = ratio of KD for GDP-bound NRAS wild-type protein to KD for KRAS
[6] = Single Cycle Kinetics, 1:1 binding model
[7] = 50% proliferation inhibitory concentration, four days
[8] = ratio of KD with respect to HRAS wild-type protein to KD with respect to KRAS
[9] = ratio of KD with respect to GDP-bound NRAS wild-type protein to KD with respect to KRAS

HRAS wild-type protein, sequence (P01112 whole entry): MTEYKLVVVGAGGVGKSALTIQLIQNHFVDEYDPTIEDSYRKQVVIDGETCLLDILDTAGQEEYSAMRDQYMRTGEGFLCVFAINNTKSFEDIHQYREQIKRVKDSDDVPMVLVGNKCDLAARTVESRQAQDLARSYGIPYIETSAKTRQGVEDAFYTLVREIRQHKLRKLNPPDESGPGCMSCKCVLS
GDP-bound NRAS wild-type protein, sequence (P01111 whole entry): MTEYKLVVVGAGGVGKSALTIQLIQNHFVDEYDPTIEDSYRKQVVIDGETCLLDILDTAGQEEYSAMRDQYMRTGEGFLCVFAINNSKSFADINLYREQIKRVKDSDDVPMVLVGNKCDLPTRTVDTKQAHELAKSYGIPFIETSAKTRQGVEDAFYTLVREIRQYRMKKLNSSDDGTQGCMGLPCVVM
GDP-bound KRAS wild-type protein, sequence (P01116 1-188 isoform P01116-2): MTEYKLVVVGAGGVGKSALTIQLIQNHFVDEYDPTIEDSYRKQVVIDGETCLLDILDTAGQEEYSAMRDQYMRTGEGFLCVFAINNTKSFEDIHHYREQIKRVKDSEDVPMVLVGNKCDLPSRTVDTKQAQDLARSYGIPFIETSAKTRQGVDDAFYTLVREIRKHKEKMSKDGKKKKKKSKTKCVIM

Compound | pKd ([1]; Single Cycle Kinetics) | pIC50 ([2]; NCI-H441 cells, 4 days) | pKd [1, 6] | pIC50 [2, 7] | pKd ([1]; 1:1 binding model) | HRAS /KRAS (HRAS wild-type protein; [4]) | NRAS /KRAS [3, 5] | HRAS /KRAS (HRAS wild-type protein; [8]) | NRAS /KRAS [3, 9]
CCC[C@H]1C(=O)N[C@@H](C23CC(C2)C3)C(=O)N(C)CC(=O)N(C)[C@H]2C/C=C\CCN(C2=O)[C@@H](Cc2ccc(C(F)(F)F)cc2)C(=O)N(C)CC(=O)N[C@@H](CCc2ccc(C(F)(F)F)c(OC)c2)C(=O)N2C[C@H](OCC)C[C@H]2C(=O)N(C)C2(CCC2)C(=O)N(C)[C@@H](C2CCCC2)C(=O)N(C)[C@H](C(=O)N(C)C)CC(=O)N1C [PP3341] | 9.34 | 7.55 |  |  |  | A (a compound having 10 or more and less than 20 is denoted as A) | A (a compound having 10 or more and less than 20 is denoted as A) |  | 
CCCOC[C@H]1C(=O)N[C@@H]([C@@H](C)CC)C(=O)N(C)CC(=O)N(C)[C@H]2C/C=C\CCN(C2=O)[C@@H](Cc2ccc(C(F)(F)F)cc2)C(=O)N(C)CC(=O)N[C@@H](CCc2cc(F)c(C(F)(F)F)c(F)c2)C(=O)N2C[C@H](OCC)C[C@H]2C(=O)NC2(CC(C)(C)C2)C(=O)N(C)[C@@H](C2CCCC2)C(=O)N(C)[C@H](C(=O)N(C)C)CC(=O)N1C [PP1398] |  |  | 10.49 | 8.64 |  |  |  | A (a compound having 10 or more and less than 20 is denoted as A) | A (a compound having 10 or more and less than 20 is denoted as A)
CCCO[C@@H]1C[C@H]2C(=O)NC3(CC(C)(C)C3)C(=O)N(C)[C@@H](C3CCCC3)C(=O)N(C)[C@H](C(=O)N(C)CC)CC(=O)N(C)[C@@H](COCC)C(=O)N[C@@H]([C@@H](C)CC)C(=O)N3CCC[C@H]3C(=O)N(C)[C@H]3C/C=C\CCN(C3=O)[C@@H](Cc3ccc(C)cc3)C(=O)N(C)CC(=O)N[C@@H](CCc3cc(F)c(C(F)(F)F)c(F)c3)C(=O)N2C1 [PP3459] | 9.01 | 7.40 |  |  |  | A (a compound having 10 or more and less than 20 is denoted as A) | A (a compound having 10 or more and less than 20 is denoted as A) |  | 
CCO[C@@H]1C[C@H]2C(=O)NC3(CCC3)C(=O)N(C)[C@@H](C3CCCC3)C(=O)N(C)[C@H](C(=O)N(C)C)CC(=O)N(C)[C@@H](CC3CC3)C(=O)N[C@@H]([C@@H](C)CC)C(=O)N(C)CC(=O)N(C)[C@H]3C/C=C\CCN(C3=O)[C@@H](CC3CCC(F)(F)CC3)C(=O)N(C)CC(=O)N[C@@H](CCc3cc(F)c(C(F)(F)F)c(F)c3)C(=O)N2C1 [PP1447] |  |  | 9.92 | 7.54 |  |  |  | A (a compound having 10 or more and less than 20 is denoted as A) | A (a compound having 10 or more and less than 20 is denoted as A)
CCO[C@@H]1C[C@H]2C(=O)NC3(CCC3)C(=O)N(C)[C@@H](C3CCCC3)C(=O)N(C)[C@H](C(=O)N(C)C)CC(=O)N(C)[C@@H](Cc3cccc(C#N)c3)C(=O)N[C@@H]([C@@H](C)CC)C(=O)N(C)CC(=O)N(C)[C@H]3CCCCCN(C3=O)[C@@H](Cc3ccc(F)cc3)C(=O)N(C)CC(=O)N[C@@H](CCc3cc(F)c(C(F)(F)F)c(F)c3)C(=O)N2C1 [PP1156] |  |  | 10.20 | 7.47 |  |  |  | B (a compound having 3 or more and less than 10 is denoted as B) | B (a compound having 3 or more and less than 10 is denoted as B)
CCO[C@@H]1C[C@H]2C(=O)NC3(CCC3)C(=O)N(C)[C@@H](C3CCCC3)C(=O)N(C)[C@H](C(=O)N(C)C)CC(=O)N(C)[C@@H](Cc3cccnc3)C(=O)N[C@@H]([C@@H](C)CC)C(=O)N(C)CC(=O)N(C)[C@H]3CCCCCN(C3=O)[C@@H](Cc3ccc(F)cc3)C(=O)N(C)CC(=O)N[C@@H](CCc3cc(F)c(C(F)(F)F)c(F)c3)C(=O)N2C1 [PP1196] |  |  | 10.40 | 7.29 |  |  |  | B (a compound having 3 or more and less than 10 is denoted as B) | B (a compound having 3 or more and less than 10 is denoted as B)
CCO[C@@H]1C[C@H]2C(=O)NC3(CCC3)C(=O)N(C)[C@@H](C3CCCC3)C(=O)N(C)[C@H](C(=O)N3CCCC3)CC(=O)N(C)[C@@H](CC3CCC3)C(=O)N[C@@H]([C@@H](C)CC)C(=O)N(C)CC(=O)N(C)[C@H]3C/C=C\CCN(C3=O)[C@@H](Cc3ccc(C)cc3)C(=O)N(C)CC(=O)N[C@@H](CCc3cc(F)c(C(F)(F)F)c(F)c3)C(=O)N2C1 [PP1425] |  |  | 9.62 | 7.69 |  |  |  | B (a compound having 3 or more and less than 10 is denoted as B) | A (a compound having 10 or more and less than 20 is denoted as A)
CCC[C@H]1C(=O)N[C@@H]([C@@H](C)CC)C(=O)N(C2CC2)CC(=O)N(C)[C@H]2C/C=C\CCN(C2=O)[C@@H](Cc2ccc(C)cc2)C(=O)N(C)CC(=O)N[C@@H](CCc2cc(F)c(C(F)(F)F)c(F)c2)C(=O)N2C[C@H](OC(C)C)C[C@H]2C(=O)NC2(CC(C)(C)C2)C(=O)N(C)[C@@H](C2CCCC2)C(=O)N(C)[C@H](C(=O)N(C)C)CC(=O)N1C [PP2570] |  | 8.05 |  |  | 9.41 | A (a compound having 10 or more and less than 20 is denoted as A) | A (a compound having 10 or more and less than 20 is denoted as A) |  | 
CCCOC[C@H]1C(=O)N[C@@H]([C@@H](C)CC)C(=O)N(C)CC(=O)N(C)[C@H]2C/C=C\CCN(C2=O)[C@@H](Cc2ccc(C(F)(F)F)cc2)C(=O)N(C)CC(=O)N[C@@H](CCc2cc(F)c(C(F)(F)F)c(F)c2)C(=O)N2C[C@H](OCC)C[C@H]2C(=O)NC2(CCCC2)C(=O)N(C)[C@@H](C2CCCC2)C(=O)N(C)[C@H](C(=O)N2CCCC2)CC(=O)N1C [PP1399] |  |  | 9.72 | 7.73 |  |  |  | A (a compound having 10 or more and less than 20 is denoted as A) | A (a compound having 10 or more and less than 20 is denoted as A)
CCC[C@H]1C(=O)N[C@@H]([C@@H](C)CC)C(=O)N2CCCC[C@H]2C(=O)N(C)[C@H]2C/C=C\CCN(C2=O)[C@@H](Cc2ccc(C)cc2)C(=O)N(C)CC(=O)N[C@@H](CCc2ccc(C(F)(F)F)c(OC)c2)C(=O)N2C[C@H](OCC)C[C@H]2C(=O)N(C)C2(CCC2)C(=O)N(C)[C@@H](C2CCCC2)C(=O)N(C)[C@H](C(=O)N(C)C)CC(=O)N1C [PP3273] | 9.30 | 7.47 |  |  |  | B (a compound having 3 or more and less than 10 is denoted as B) | A (a compound having 10 or more and less than 20 is denoted as A) |  | 

More lines, main results first:

pKd ([1]; Single Cycle Kinetics) | pIC50 ([2]; NCI-H441 cells, 4 days) | pKd [1, 6] | pIC50 [2, 7] | pKd ([1]; 1:1 binding model) | Compound | HRAS /KRAS (HRAS wild-type protein; [4]) | NRAS /KRAS [3, 5] | HRAS /KRAS (HRAS wild-type protein; [8]) | NRAS /KRAS [3, 9]
 |  | 9.82 | 5.75 |  | CC[C@H](C)[C@@H]1NC(=O)[C@H](CC)N(C)C(=O)C[C@@H](C(=O)N(C)C)N(C)C(=O)[C@H](C2CCCC2)N(C)C(=O)C2(CCC2)NC(=O)[C@H](C)NC(=O)[C@H](CCc2cc(F)c(C(F)(F)F)c(F)c2)NC(=O)CN(C)C(=O)[C@H](Cc2ccc(C(F)(F)F)cc2)N2CC/C=C\C[C@@H](C2=O)N(C)C(=O)CN(C)C1=O [PP1140] |  |  | A (a compound having 10 or more and less than 20 is denoted as A) | A (a compound having 10 or more and less than 20 is denoted as A)
 |  | 9.49 | 7.13 |  | CCO[C@@H]1C[C@H]2C(=O)NC3(CCC3)C(=O)N(C)[C@@H](C3CCCC3)C(=O)N(C)[C@H](C(=O)N(C)C)CC(=O)N(C)[C@@H](Cc3cccs3)C(=O)N[C@@H]([C@@H](C)CC)C(=O)N(C)CC(=O)N(C)[C@H]3CCCCCN(C3=O)[C@@H](Cc3ccc(C(F)(F)F)cc3)C(=O)N(C)CC(=O)N[C@@H](CCc3cc(F)c(C(F)(F)F)c(F)c3)C(=O)N2C1 [PP1169] |  |  | B (a compound having 3 or more and less than 10 is denoted as B) | B (a compound having 3 or more and less than 10 is denoted as B)
 | 7.59 |  |  | 9.27 | CCC[C@H]1C(=O)N[C@@H]([C@@H](C)CC)C(=O)N(C)CC(=O)N(C)[C@H]2C/C=C\CCN(C2=O)[C@@H](CC2CCCCC2)C(=O)N(C)CC(=O)N[C@@H](CCc2ccc(C(F)(F)F)c(OC)c2)C(=O)N2C[C@@H](C)C[C@H]2C(=O)N(C)C2(CCC2)C(=O)N(C)[C@@H](C2CCCC2)C(=O)N(C)[C@H](C(=O)N(C)C)CC(=O)N1C [PP2370] | B (a compound having 3 or more and less than 10 is denoted as B) | B (a compound having 3 or more and less than 10 is denoted as B) |  | 
9.85 | 8.17 |  |  |  | CCC[C@H]1C(=O)N[C@@H]([C@@H](C)CC)C(=O)N2CC[C@H]2C(=O)N(C)[C@H]2C/C(F)=C\CCN(C2=O)[C@@H](Cc2ccc(C)cc2)C(=O)N(C)CC(=O)N[C@@H](CCc2ccc(C(F)(F)F)c(OC)c2)C(=O)N2C[C@H](OCC)C[C@H]2C(=O)N(C)C2(CCC2)C(=O)N(C)[C@@H](C2CCCC2)C(=O)N(C)[C@H](C(=O)N(C)C)CC(=O)N1C [PP3530] | B (a compound having 3 or more and less than 10 is denoted as B) | B (a compound having 3 or more and less than 10 is denoted as B) |  | 
 | 7.16 |  |  | 8.85 | CC[C@H](C)[C@@H]1NC(=O)[C@H](COC)N(C)C(=O)C[C@@H](C(=O)N(C)C)N(C)C(=O)[C@H](C2CCCC2)N(C)C(=O)C2(CC(C)(C)C2)NC(=O)[C@@H]2C[C@@H](OC3CCC3)CN2C(=O)[C@H](CCc2cc(F)c(C(F)(F)F)c(F)c2)NC(=O)CN(C)C(=O)[C@H](CC2CCCCC2)N2CC/C=C\C[C@@H](C2=O)N(C)C(=O)CN(C2CC2)C1=O [PP2618] | A (a compound having 10 or more and less than 20 is denoted as A) | A (a compound having 10 or more and less than 20 is denoted as A) |  | 
